Experimental data from patent US20090048295A1, “SUBSTITUTED 5,6,7,8-TETRAHYDROQUINOLINE DERIVATIVES, COMPOSITIONS, AND METHODS OF USE THEREOF” (priority 2007, published 2009).
Values joined by “and” are separate entries in the source; they are usually repeats but may differ in a detail not shown here. Equal values may be shown once.

Legend:
[1] = biological target: T1, C5a receptor (Homo sapiens, UniProt P21730)
T1 sequence (P21730 1-350): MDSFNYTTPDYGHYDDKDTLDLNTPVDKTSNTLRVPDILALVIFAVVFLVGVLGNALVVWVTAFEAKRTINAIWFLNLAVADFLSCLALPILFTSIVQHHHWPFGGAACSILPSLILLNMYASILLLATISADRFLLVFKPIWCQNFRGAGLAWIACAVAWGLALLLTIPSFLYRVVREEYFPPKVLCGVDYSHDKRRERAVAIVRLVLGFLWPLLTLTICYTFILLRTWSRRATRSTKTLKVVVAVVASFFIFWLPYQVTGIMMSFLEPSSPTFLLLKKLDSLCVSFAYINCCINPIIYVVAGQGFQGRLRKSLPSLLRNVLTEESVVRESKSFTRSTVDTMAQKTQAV
Procedure: (§1) Competition binding assays for C5a receptors were performed by incubation of differentiated U937 cells (200,000 cells/well), test compound (1% DMSO) and [^125I]-C5a (Bolton & Hunter labeled, Perkin Elmer, specific activity=2200 Ci/mmol, 0.05 nM final) in binding buffer consisting of 50 mM HEPES, 5 mM MgCl2, 1 mM CaCl2, 0.5% protease-free BSA, 0.02% NaN3, pH 7.4. 100× solutions of test compounds were prepared in DMSO and further diluted in binding buffer. Non-specific binding was defined in wells containing 100 nM recombinant C5a. Cells and compound were pre-incubated for 30 min at RT. After addition of the radioligand, further incubation for 60 min occurred at 4° C. Cells were harvested on GF/B filters—presoaked in 0.5% polyethylenimine, followed by washing with binding buffer containing 500 mM NaCl, pH 7.4. Filter bound radioactivity was determined by liquid scintillation counting. IC50 and Ki values were calculated using non-linear regression in Graphpad Prism. Ki is calculated using the equation of Cheng and Prusoff (Biochem. Pharmacol. 1973, 22: 3099-3108)

[2] = biological target: T1, C5a receptor; assay: [125I]-C5a Radioligand Binding Assay (competition binding, differentiated U937 cells); details: [125I]-C5a 0.05 nM, U937 cells, multiple values = duplicate experiments; for inhibition at 10 µM: read-out: [125I]-C5a Binding % Inhibition 10 μM, test compound 10 μM; for [125I]-C5a Binding % Inhibition 1 μM: test compound 1 μM; for [125I]-C5a Binding % Inhibition 10 μM: test compound 10 μM; for inhibition at 1 µM: read-out: [125I]-C5a Binding % Inhibition 1 μM, test compound 1 μM;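 on all read-outs here: cells preincubated with compound 30 min at room temperature, then 60 min at 4 °C with radioligand, bound counts read by scintillation, nonspecific binding defined with 100 nM C5a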
Procedure: as §1

[3] = biological target: T1, C5a receptor; assay: Calcium Mobilization Assay (C5a-induced Ca2+ mobilization, FLIPR, differentiated U937 cells); format: cell-based; set-up: endogenous in cells; host or cells: U937 cells differentiated with dibutyryl cAMP; details: […] recombinant human C5a, 20 min pre-incubation, multiple values = duplicate experiments, read-out: C5a Induced Ca Mobil. Average IC50
Procedure: U937 cells (human monocytic cell line) were cultured in RPMI-1640 medium supplemented with 10% fetal bovine serum, 10 mM HEPES, 0.11 g/L pyruvate, 0.29 g/L L-glutamine, 100 IU/mL penicillin G and […] streptomycin. Dibutyryl cAMP (1 mM) was added to induce differentiation 2 or 3 days prior to loading the cells with 4.4 μM Fluo-3AM (Molecular Probes) for 30 min at 37° C. in RPMI medium containing 20 mM HEPES, 0.1% bovine serum albumin (BSA) and 5 mM probenecid. After washing, cells were dissolved at 2×10^6 cells/ml in HBSS buffer (Invitrogen 14190-094) supplemented with 10 mM HEPES, 2.5 mM probenecid and 0.1% BSA (pH=7.4), and sedimented by 1 min centrifugation (1500 rpm) in black 96-well plates (Costar) (200,000 cells/well). A 100× concentration range of test compounds was prepared in DMSO and further diluted in HBSS buffer. U937 cells were pre-incubated with compound for 20 minutes at room temperature (1% DMSO), before recombinant human C5a (Sigma) was added to the cells (1.5 nM). Changes in intracellular free Ca^2+ concentration were measured using the Fluorescent Imaging Plate Reader (FLIPR, Molecular Devices). Fluorescence was recorded every second from 10 seconds before the addition of C5a until 2 min after the addition. The maximal fluorescence obtained during this time frame was used for further calculations.

Compound	Ki [1] [nM]	inhibition at 10 µM [2] [%]	[125I]-C5a Binding % Inhibition 1 μM [2]	[125I]-C5a Binding % Inhibition 10 μM [2]	inhibition at 1 µM [2] [%]	IC50 [3] [nM]
CCc1cccc(CC)c1-c1cc(OC)c2c(n1)CCCC2N1CCc2ccccc2C1 (centres unmarked) [Compound 31]	35	87	77% and 94% and 96% and 69%	101% and 100% and 83%		
CCc1cccc(CC)c1-c1cc(OC)c2c(n1)CCCC2Nc1cc(OC)ccc1C (centres unmarked) [Compound 11]	10	92	96%	97%	88	
CCN(c1cccc2ccccc12)C1CCCc2nc(-c3cccc4ccccc34)cc(OC)c21 (centres unmarked) [Compound 78]	368	85	72%	95%	71	5860
CCc1cccc(CC)c1-c1cc(OC)c2c(n1)CCCC2N(C)c1ccccc1 (centres unmarked) [Compound 82]	678	81	55%	76%	66	7940
CCc1cccc(CC)c1-c1cc(OC)c2c(n1)CCCC2N(C)c1ccc(OC)c2ccccc12 (centres unmarked) [Compound 36]		87			86	531
COc1cccc(N(C)C2CCCc3nc(-c4c(C)cccc4C)cc(OC)c32)c1C (centres unmarked) [Compound 117]			86%	85%		> 10000
CCc1cccc(CC)c1-c1cc(OC)c2c(n1)CCCC2N(C)Cc1ccco1 (centres unmarked) [Compound 92]		62			24	> 10000
CCc1cccc(CC)c1-c1cc(OC)c2c(n1)CCCC2N1CCCC1 (centres unmarked) [Compound 126]		18			-11	> 10000
CCN(c1cccc2ccccc12)C1CCCc2nc(-c3ccccc3F)cc(OC)c21 (centres unmarked) [Compound 73]	3690	80	55% and 34%	70%		4590
CCc1cccc(CC)c1-c1cc(OCc2ccccc2)c2c(n1)CCCC2N(CC)c1cccc2ccccc12 (centres unmarked) [Compound 27]		94			90	273
CCc1cccc(CC)c1-c1cc(OC)c2c(n1)CCCC2N1CCc2cc(C(=O)O)ccc2C1 (centres unmarked) [Compound 128]		-9			-25	> 10000
CCc1cccc(CC)c1-c1cc(OC)c2c(n1)CCCC2N1CCc2c(cccc2C(=O)O)C1 (centres unmarked) [Compound 129]		-20			-46	> 10000
CCc1cccc(CC)c1-c1cc(OC)c2c(n1)CCCC2N(C(C)=O)c1cccc2ccccc12 (centres unmarked) [Compound 79]		78			49	6170
CCc1cccc(CC)c1-c1cc(OC)c2c(n1)CCCC2N(C)c1cccc2ccccc12 (centres unmarked) [Compound 104]		64			56	> 10000
CCc1cccc(CC)c1-c1cc(OC)c2c(n1)CCCC2N1CCc2ccc(C#N)cc2C1 (centres unmarked) [Compound 96]		87			77	> 10000
CCc1cccc(CC)c1-c1cc(OC)c2c(n1)CCCC2Nc1cccc2c1CCC2 (centres unmarked) [Compound 121]		75			59	> 10000
CCc1cccc(CC)c1-c1cc(OC)c2c(n1)CCCC2OCc1ccccc1 (centres unmarked) [Compound 86]		64			49	> 10000
CCc1cccc(CC)c1-c1cc(OC)c2c(n1)CCCC2Nc1c(C)ccc2ccccc12 (centres unmarked) [Compound 119]		74			64	> 10000
CCN(c1cccc2ccccc12)C1CCCc2nc(-c3ccccc3)cc(OC)c21 (centres unmarked) [Compound 133]	8290					
CCc1cccc(CC)c1-c1cc(OC)c2c(n1)CCCC2N(C)CCCc1ccccc1 (centres unmarked) [Compound 91]			20%	60%		> 10000
CCc1cccc(CC)c1-c1cc(OC)c2c(n1)CCCC2N(C)Cc1ccccc1 (centres unmarked) [Compound 123]		39			3	> 10000

Other lines, results leading:

Ki [1] [nM]	inhibition at 10 µM [2] [%]	[125I]-C5a Binding % Inhibition 1 μM [2]	[125I]-C5a Binding % Inhibition 10 μM [2]	inhibition at 1 µM [2] [%]	IC50 [3] [nM]	Compound
13	97			91	71	CCc1cccc(CC)c1-c1cc(OC)c2c(n1)CCCC2Nc1ccc(Cl)cc1CO (centres unmarked) [Compound 9]
	51			25	> 10000	CCc1cccc(CC)c1-c1cc(OC)c2c(n1)CCCC2NC1Cc2ccccc2C1 (centres unmarked) [Compound 88]
	90			88	133	CCN(c1cccc2ccccc12)C1CCCc2nc(-c3c(C)cccc3C)cc(OC)c21 (centres unmarked) [Compound 16]
	70			43	> 10000	CCc1cccc(CC)c1-c1cc(OC)c2c(n1)CCCC2N1CCc2cc(C(=O)OC)ccc2C1 (centres unmarked) [Compound 98]
	88			76	2190	COc1cc(-c2c(C)cccc2C)nc2c1C(N(C)c1cccc3ccccc13)CCC2 (centres unmarked) [Compound 61]
	85			83	1380	CCc1cccc(CC)c1-c1cc(OC)c2c(n1)CCCC2Nc1cc(F)ccc1C (centres unmarked) [Compound 50]
	91			85	1210	COc1cc(-c2c(C)cccc2C)nc2c1C(N(C)c1ccc(Cl)c3ccccc13)CCC2 (centres unmarked) [Compound 48]
	87			74	1580	CCc1cccc(CC)c1-c1cc(OC)c2c(n1)CCCC2N(C)N1CCCc2ccccc21 (centres unmarked) [Compound 54]
	70			55	> 10000	CCc1cccc(CC)c1-c1cc(OC)c2c(n1)CCCC2Oc1cccc2ccccc12 (centres unmarked) [Compound 105]
	76			59	> 10000	CCc1cccc(CC)c1-c1cc(OC)c2c(n1)CCCC2N1CCc2c(cccc2C(=O)OC)C1 (centres unmarked) [Compound 99]
	83			80	817	CCc1cccc(CC)c1-c1cc(OC)c2c(n1)CCC[C@H]2N(C)[C@H]1CCCc2ccccc21 [Compound 43]
57		91%	89%		1900	CCc1cccc(CC)c1-c1cc(OC)c2c(n1)CCC[C@@H]2N(C)[C@@H]1CCCc2ccccc21 [Compound 59]
	87			84	560	CCc1cccc(CC)c1-c1cc(OC)c2c(n1)CCCC2N(C)c1cc(OC)ccc1C (centres unmarked) [Compound 38]
179	83		85%		1970	CCc1cccc(CC)c1-c1cc(Cl)c2c(n1)CCCC2N(CC)c1cccc2ccccc12 (centres unmarked) [Compound 60]
		87%	86%		176	CCc1cccc(CC)c1-c1cc(OC)c2c(n1)CCCC2N(C)c1cccc2cc(OC)ccc12 (centres unmarked) [Compound 22]
	80			59	1380	COc1cc(-c2c(C)cccc2C)nc2c1C(N(CC#N)c1cccc3ccccc13)CCC2 (centres unmarked) [Compound 49]
	86			82	2560	CCc1cccc(CC)c1-c1cc(OC)c2c(n1)CCCC2N(C)c1cc(Cl)ccc1C (centres unmarked) [Compound 67]
	89			83	949	CCc1cccc(CC)c1-c1cc(OC)c2c(n1)CCCC2N(C)c1cc(OC)ccc1Cl (centres unmarked) [Compound 47]
		−7% and 1%			2430	CCc1cccc(CC)c1-c1cc(OC)c2c(n1)CCCC2N1CCCc2ccccc21 (centres unmarked) [Compound 65]
